“Also recorded” adds a separate entry of the source. Square brackets hold non-standard residues; d marks the D form. Ends that are not written are not given here. Lys(N3) = [N-]=[N+]=NCCCC[C@H](N)C(=O)O
What was measured:
[1] = tested on: amino acid at a terminal position of a polypeptide; conditions: amino acid identity at a terminal position of a polypeptide; phospho-Y also at an internal position; cited from earlier work
[2] = target: T1, rat aminopeptidase N (Rat APN) (Rattus norvegicus, UniProt P15684); assay: Terminal amino acid cleavage of peptide-linker conjugates monitored by LCMS, Rat APN; assay type: biochemical; conditions: incubated with Rat APN
T1 sequence (P15684 1-965): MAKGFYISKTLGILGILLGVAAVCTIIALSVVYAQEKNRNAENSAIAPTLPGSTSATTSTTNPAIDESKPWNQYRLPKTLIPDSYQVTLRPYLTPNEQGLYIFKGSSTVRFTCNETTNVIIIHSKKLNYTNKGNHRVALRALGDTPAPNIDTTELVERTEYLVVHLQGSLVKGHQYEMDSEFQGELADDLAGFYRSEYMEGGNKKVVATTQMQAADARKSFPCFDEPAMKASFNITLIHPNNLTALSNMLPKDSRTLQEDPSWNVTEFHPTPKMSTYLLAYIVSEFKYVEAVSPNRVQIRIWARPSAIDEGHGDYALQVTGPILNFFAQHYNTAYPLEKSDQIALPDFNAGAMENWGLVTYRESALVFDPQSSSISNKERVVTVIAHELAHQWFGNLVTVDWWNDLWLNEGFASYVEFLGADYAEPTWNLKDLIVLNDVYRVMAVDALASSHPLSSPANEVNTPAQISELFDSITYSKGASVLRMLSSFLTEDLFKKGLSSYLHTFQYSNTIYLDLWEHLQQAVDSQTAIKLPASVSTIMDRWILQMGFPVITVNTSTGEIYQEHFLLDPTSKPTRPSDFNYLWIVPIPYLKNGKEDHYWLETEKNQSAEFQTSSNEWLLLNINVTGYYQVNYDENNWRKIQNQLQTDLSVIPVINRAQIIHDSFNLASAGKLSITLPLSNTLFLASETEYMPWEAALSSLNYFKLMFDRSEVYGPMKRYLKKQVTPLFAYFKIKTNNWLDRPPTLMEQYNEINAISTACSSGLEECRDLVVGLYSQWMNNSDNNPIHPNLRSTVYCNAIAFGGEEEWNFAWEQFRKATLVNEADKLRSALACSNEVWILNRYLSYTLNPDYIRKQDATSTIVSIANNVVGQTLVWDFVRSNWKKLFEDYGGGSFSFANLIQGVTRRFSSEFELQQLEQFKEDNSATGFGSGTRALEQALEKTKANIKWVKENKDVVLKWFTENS
Protocol: (§1) The peptide-linker conjugates were evaluated for amino acid cleavage at peptide N-termini by N-terminal aminopeptidases (Table 6, below).
(§2) The peptide-linker conjugates shown in Table 6 were incubated with either proline iminopeptidase (“PIP”) or rat aminopeptidase N (“Rat APN”), and peptide cleavage was monitored by LCMS. All other cleavage reactions were measured in a similar manner.

[3] = tested on: proline iminopeptidase (PIP); assay: Terminal amino acid cleavage of peptide-linker conjugates monitored by LCMS, PIP; assay type: biochemical; conditions: incubated with PIP
Protocol: as §1, §2

| Substance | Binding Pref. [1] | Cleaved by Rat APN [2] | other results |
| --- | --- | --- | --- |
| H. sapiens p62 fragment 1-180: amino acid recognition protein, SEQ ID NO: 27 | K, R, H,; also recorded: W, F, Y | – | – |
| Rattus norvegicus p62 protein: amino acid recognition protein, SEQ ID NO: 30 | K, R, H,; also recorded: W, F, Y | – | – |
| AAMAAM{LYS(N3)} [Entry 7] | – | Yes | – |
| FPFPFP{LYS(N3)} [Entry 8] | – | – | Cleaved by PIP [3]: Yes |
| KPKPKP{LYS(N3)} [Entry 11] | – | – | Cleaved by PIP [3]: Yes |
| KKMKKM{LYS(N3)} [4] (KKMKKM[Lys(N3)]; also: PEG4 linker) [Entry 4, 71, positive class, PEG4 linker] | – | Yes | – |
| H. sapiens p62 fragment 1-310: amino acid recognition protein, SEQ ID NO: 26 | K, R, H,; also recorded: W, F, Y | – | – |
| DPDPDP{LYS(N3)} [Entry 9] | – | – | Cleaved by PIP [3]: Yes |
| H. sapiens p62 fragment 126-180: amino acid recognition protein, SEQ ID NO: 28 | K, R, H,; also recorded: W, F, Y | – | – |
| KPKPKP{LYS(N3)} [Entry 10] | – | – | Cleaved by PIP [3]: No |
| KKMKKM{LYS(N3)} [3] (KKMKKM[Lys(N3)]; also: oligo-PEG linker) [Entry 3, 71, positive class, oligo-PEG linker] | – | No | – |
| FFMFFM{LYS(N3)} (FFMFFM[Lys(N3)]; also: oligo linker) [Entry 6, 73, aromatic class, oligo linker] | – | Yes | – |
| DDMDDM{LYS(N3)} [Entry 5] | – | Yes | – |
| H. sapiens Src tyrosine kinase SH2 domain: amino acid recognition protein, SEQ ID NO: 24 | phospho-Y | – | – |
| KKMKKM{LYS(N3)} [2] (KKMKKM[Lys(N3)]; also: oligo linker) [Entry 2, 71, positive class, oligo linker] | – | No | – |
